Measured values reported in patent publication US11471465B2 (priority 2017, dated 2022).
Read-outs that look alike come from different tables or passages of the source. Values belong to the compound of their own block, whether it stands above or below them.

Experiments:
[1] = Dissolution testing of the monolayer meloxicam/rizatriptan tablet in 0.01 N HCl, Example 4; type: physicochemical; conditions: monolayer tablet of Example 4, 0.01 N HCl, 75 RPM, 37° C
[2] = cited from earlier work
[3] = Method: The effect of varying amounts of potassium carbonate (K2CO3) and sodium bicarbonate (NaHCO3) on the pH of acidic media was tested. The acidic media was chosen to simulate gastric conditions. K2CO3 or NaHCO3 was added to 50 mL of a 0.01 N HCl solution (pH 2). The pH of the solution was measured after addition of the K2CO3 or NaHCO3. Deionized water (240 mL) was then added to the mixture and pH was measured again.
[4] = test system: moderate and severe migraine; test: Phase 3 placebo- and active-controlled trial (MOMENTUM), patients with inadequate response to prior acute treatments, Example 11
[5] = from 2 hours to 24 hours after dosing

percent dissolved ([1]; 0 min): 0%
percent dissolved ([1]; 15 min): 79%
percent dissolved ([1]; 30 min): 92%
percent dissolved ([1]; 45 min): 93%
percent dissolved ([1]; 60 min): 93%
percent dissolved ([1]; 90 min): 93%
percent dissolved ([1]; 120 min): 94%
Compound: Cc1cnc(NC(=O)C2=C(O)c3ccccc3S(=O)(=O)N2C)s1 [Meloxicam]
AUC0-24 of meloxicam ([2]; 15 mg IV and intramuscular doses, human beings): about 27 μg·hr/mL
reported Tmax ([2]; intramuscular): 60 to 84 min
reported Tmax ([2]; intravenous bolus): ~3 min
reported Tmax ([2]; intravenous infusion): approximately 30 minutes

pH ([3]; 200 mg NaHCO3, 0.01 N HCl + 240 mL water): 5.41
pH ([3]; 200 mg NaHCO3 added to 50 mL 0.01 N HCl): 5.28
pH ([3]; 300 mg NaHCO3, 0.01 N HCl + 240 mL water): 5.89
pH ([3]; 300 mg NaHCO3 added to 50 mL 0.01 N HCl): 5.90
pH ([3]; 400 mg NaHCO3, 0.01 N HCl + 240 mL water): 6.11
pH ([3]; 400 mg NaHCO3 added to 50 mL 0.01 N HCl): 6.44
pH ([3]; 450 mg NaHCO3, 0.01 N HCl + 240 mL water): 6.46
pH ([3]; 450 mg NaHCO3 added to 50 mL 0.01 N HCl): 6.86
pH ([3]; 500 mg NaHCO3, 0.01 N HCl + 240 mL water): 8.33
pH ([3]; 500 mg NaHCO3 added to 50 mL 0.01 N HCl): 8.23
pH ([3]; 750 mg NaHCO3, 0.01 N HCl + 240 mL water): 8.54
pH ([3]; 750 mg NaHCO3 added to 50 mL 0.01 N HCl): 8.30
pH ([3]; 1000 mg NaHCO3, 0.01 N HCl + 240 mL water): 8.60
pH ([3]; 1000 mg NaHCO3 added to 50 mL 0.01 N HCl): 8.36
Compound: O=C([O-])O.[Na+] [NaHCO3, sodium bicarbonate]

pH ([3]; 25 mg K2CO3 added to 50 mL 0.01 N HCl): 2.84
pH ([3]; 35 mg K2CO3 added to 50 mL 0.01 N HCl): 6.29
pH ([3]; 45 mg K2CO3 added to 50 mL 0.01 N HCl): 8.05
pH ([3]; 50 mg K2CO3 added to 50 mL 0.01 N HCl): 8.29
pH ([3]; 100 mg K2CO3 added to 50 mL 0.01 N HCl): 9.43
pH ([3]; 200 mg K2CO3, 0.01 N HCl + 240 mL water): 10.27
pH ([3]; 200 mg K2CO3 added to 50 mL 0.01 N HCl): 10.14
pH ([3]; 300 mg K2CO3, 0.01 N HCl + 240 mL water): 10.46
pH ([3]; 300 mg K2CO3 added to 50 mL 0.01 N HCl): 10.39
pH ([3]; 400 mg K2CO3, 0.01 N HCl + 240 mL water): 10.57
pH ([3]; 400 mg K2CO3 added to 50 mL 0.01 N HCl): 10.55
pH ([3]; 450 mg K2CO3, 0.01 N HCl + 240 mL water): 10.63
pH ([3]; 450 mg K2CO3 added to 50 mL 0.01 N HCl): 10.58
Compound: O=C([O-])[O-].[K+].[K+] [Tablet K2CO3, potassium carbonate]

Compound: Rizatriptan
percent dissolved ([1]; 0 min): 0%
percent dissolved ([1]; 15 min): 89%
percent dissolved ([1]; 30 min): 102%
percent dissolved ([1]; 45 min): 103%
percent dissolved ([1]; 60 min): 103%
percent dissolved ([1]; 90 min): 103%
percent dissolved ([1]; 120 min): 103%
patients experiencing relapse of pain ([4]; 48-hour period after dosing): 45.2%
probability of experiencing pain relief ([4]; 24 hours after taking): approximately 60%
proportion of patients experiencing pain relief ([4]; […] after dosing): 52.5%
percentage of patients achieving sustained pain freedom [4, 5]: 11.2%
percentage of patients experiencing sustained pain relief [4, 5]: 43.9%
percentage of patients experiencing sustained pain freedom ([4]; from 2 hours to 48 hours): 8.8%
percentage of patients experiencing sustained pain relief ([4]; from 2 hours to 48 hours): 36.5%
median time to pain relief ([4]; human, in vivo): 4 h
Any Treatment-Emergent Adverse Event, % of subjects ([4]; single dose): (15.4%)
Any Treatment-Emergent Adverse Event, number of subjects ([4]; single dose): 67
Dizziness, % of subjects ([4]; single dose): (2.1%)
Dizziness, number of subjects ([4]; single dose): 9
Nausea, % of subjects ([4]; single dose): (4.8%)
Nausea, number of subjects ([4]; single dose): 21
Somnolence, % of subjects ([4]; single dose): (2.1%)
Somnolence, number of subjects ([4]; single dose): 9
patients who used rescue medication ([4]; through hour 24 post dose): 34.7%
